Measurements: PMC2741015 (Molecular and biochemical parasitology, 2009)

Tests used:
[1] = target: PfSHMT protein interaction with SHMT or DHFR-TS mRNA (Plasmodium falciparum, UniProt Q8I566); assay: RNA-protein interaction gel shift, competition with substrates; format: binding; conditions: 500 nM SHMT protein, 0.5 nM labeled RNA; 125 μM PLP, 3 mM serine, 3 mM THF
[2] = target: T1, P. falciparum SHMT (PfSHMT) (Plasmodium falciparum, UniProt Q8I566); assay: Michaelis-Menten constants of PfSHMT substrates; format: biochemical
T1 sequence (Q8I566 1-442): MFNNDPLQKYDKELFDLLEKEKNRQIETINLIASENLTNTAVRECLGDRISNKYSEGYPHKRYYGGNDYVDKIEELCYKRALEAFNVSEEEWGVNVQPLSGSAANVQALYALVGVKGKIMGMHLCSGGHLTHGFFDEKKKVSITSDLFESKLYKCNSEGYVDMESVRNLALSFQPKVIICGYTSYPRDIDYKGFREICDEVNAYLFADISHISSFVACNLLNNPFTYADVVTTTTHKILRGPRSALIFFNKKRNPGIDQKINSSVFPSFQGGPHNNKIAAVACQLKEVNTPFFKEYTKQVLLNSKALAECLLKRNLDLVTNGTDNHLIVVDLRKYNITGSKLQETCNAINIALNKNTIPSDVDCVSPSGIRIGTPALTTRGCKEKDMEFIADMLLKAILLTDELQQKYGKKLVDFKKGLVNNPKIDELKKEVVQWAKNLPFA

[3] = target: T1, P. falciparum SHMT (PfSHMT); assay: PfSHMT activity inhibition by antifolates; format: biochemical
[4] = target: P. falciparum SHMT apo enzyme (Plasmodium falciparum, UniProt Q8I566); assay: Activity of apo PfSHMT with and without PLP; format: biochemical; conditions: apo enzyme with vs without PLP (Fig 4A)
SEC = target: the molecule itself; assay: SEC

For `N[C@@H](CO)C(=O)O` [serine], the “Effect on PfSHMT protein interaction with SHMT or DHFR-TS mRNA” value [1] was “not abrogated”.

With tetrahydrofolate [THF] the Vmax ([2]; from velocity vs. substrate fit) was 188.5 pmol/min and the Km ([2]; read-out: Km, P falciparum, Table 1, P. falciparum SHMT) was 3.4 mM.

With `CCc1nc(N)nc(N)c1-c1ccc(Cl)cc1` [pyrimethamine] the IC50 [3] was > 500 µM.

`Cc1ncc(COP(=O)(O)O)c(C=O)c1O` [PLP, pyridoxal 5’-phosphate] was tested, and the “Effect on PfSHMT protein interaction with SHMT or DHFR-TS mRNA” value [1] was “not abrogated” and the “Enzyme activity of apo enzyme with PLP added to the reaction” value [4] was “increased by more than ten fold”.

`Nc1nc2[nH]cc(CCc3ccc(C(=O)N[C@@H](CCC(=O)O)C(=O)O)cc3)c2c(=O)[nH]1` [pemetrexed] was tested, and the IC50 [3] was > 500 µM.

In the case of `CN(Cc1cnc2nc(N)nc(N)c2n1)c1ccc(C(=O)N[C@@H](CCC(=O)O)C(=O)O)cc1` [methotrexate], the IC50 [3] is reported as > 500 µM.

In the case of `Cc1nc2ccc(CN(C)c3ccc(C(=O)N[C@@H](CCC(=O)O)C(=O)O)s3)cc2c(=O)[nH]1` [D1694], the IC50 [3] is reported as > 500 µM.

B1: Plasmodium falciparum serine hydroxymethyltransferase with an N-terminal histidine tag (enzyme, Plasmodium falciparum (strain 3D7), UniProt Q8I566 1-442, looked up)
chain: T1 sequence (Q8I566 1-442)
With B1 the “stoichiometry N” value (SEC) was 2.
